# Results taken from US9469650B2, “Melampomagnolide B derivatives” (BOARD OF TRUSTEES OF THE UNIVERSITY OF ARKANSAS, priority 2013, dated 2016).
# How the values were obtained:
# MCF7 = test: panel of 60 human tumor cell lines, growth inhibition (Breast Cancer); conditions: for Percent Growth: MCF7
# SF-268 = test: panel of 60 human tumor cell lines, growth inhibition (CNS Cancer)
# M14 = test: panel of 60 human tumor cell lines, growth inhibition (Melanoma)
# OVCAR-5 = test: panel of 60 human tumor cell lines, growth inhibition (Ovarian Cancer)
# CAKI-1 = test: panel of 60 human tumor cell lines, growth inhibition (Renal Cancer)
# NCI-H522 = test: panel of 60 human tumor cell lines, growth inhibition (Non-Small Cell Lung Cancer)
# A549/ATCC = test: as above; conditions: for Percent Growth: A549/ATCC
# SK-OV-3 = test: panel of 60 human tumor cell lines, growth inhibition (Ovarian Cancer)
# IGROV1 = test: as above; conditions: for Percent Growth: IGROVI
# OVCAR-8 = test: as above
# NCI-H23 = test: panel of 60 human tumor cell lines, growth inhibition (Non-Small Cell Lung Cancer)
# TK-10 = test: panel of 60 human tumor cell lines, growth inhibition (Renal Cancer); conditions: for Percent Growth: TK-10
# SK-MEL-2 = test: panel of 60 human tumor cell lines, growth inhibition (Melanoma)
# CCRF-CEM = test: panel of 60 human tumor cell lines, growth inhibition (Leukemia)
# SW-620 = test: panel of 60 human tumor cell lines, growth inhibition (Colon Cancer); conditions: for Percent Growth: SW-620
# LOX IMVI = test: panel of 60 human tumor cell lines, growth inhibition (Melanoma)
# MDA-MB-231/ATCC = test: panel of 60 human tumor cell lines, growth inhibition (Breast Cancer); conditions: for Percent Growth: MDA-MB-231/ATCC
smiles,measurement,setting,value
C=C1C(=O)O[C@H]2[C@H]1CC/C(COC(=O)CCC(=O)NCc1ccc(Cl)nc1)=C\CC[C@@]1(C)O[C@@H]21 [JVM 96],GI50,"MCF7; Homo sapiens, MCF7, MCF7",3.2 µM
same,CC50,"MCF7; Homo sapiens, MCF7, read-out: LC50",58.9 µM
same,IC (TGI),"MCF7; Homo sapiens, MCF7, read-out: TGI",13.6 µM
same,Percent Growth,MCF7; Log10 Concentration −4.0,−68%
same,Percent Growth,MCF7; Log10 Concentration −5.0,10%
same,Percent Growth,MCF7; Log10 Concentration −6.0,90%
same,Percent Growth,MCF7; Log10 Concentration −7.0,89%
same,Percent Growth,MCF7; Log10 Concentration −8.0,90%
same,GI50,"SF-268; Homo sapiens, SF-268",10.5 µM
same,CC50,"SF-268; Homo sapiens, SF-268, read-out: LC50",67.6 µM
same,IC (TGI),"SF-268; Homo sapiens, SF-268, read-out: TGI",26.7 µM
same,Percent Growth,"SF-268; SF-268, Log10 Concentration −4.0",−71%
same,Percent Growth,"SF-268; SF-268, Log10 Concentration −5.0",52%
same,Percent Growth,"SF-268; SF-268, Log10 Concentration −6.0",97%
same,Percent Growth,"SF-268; SF-268, Log10 Concentration −7.0",98%
same,Percent Growth,"SF-268; SF-268, Log10 Concentration −8.0",97%
same,GI50,"M14; Homo sapiens, M14",5.75 µM
same,CC50,"M14; Homo sapiens, M14, read-out: LC50",50.3 µM
same,IC (TGI),"M14; Homo sapiens, M14, read-out: TGI",19.5 µM
same,Percent Growth,"M14; M14, Log10 Concentration −4.0",−86%
same,Percent Growth,"M14; M14, Log10 Concentration −5.0",35%
same,Percent Growth,"M14; M14, Log10 Concentration −6.0",96%
same,Percent Growth,"M14; M14, Log10 Concentration −7.0",91%
same,Percent Growth,"M14; M14, Log10 Concentration −8.0",98%
same,GI50,"OVCAR-5; Homo sapiens, OVCAR-5",12.1 µM
same,CC50,"OVCAR-5; Homo sapiens, OVCAR-5, read-out: LC50",60.5 µM
same,IC (TGI),"OVCAR-5; Homo sapiens, OVCAR-5, read-out: TGI",27.1 µM
same,Percent Growth,"OVCAR-5; OVCAR-5, Log10 Concentration −4.0",−81%
same,Percent Growth,"OVCAR-5; OVCAR-5, Log10 Concentration −5.0",62%
same,Percent Growth,"OVCAR-5; OVCAR-5, Log10 Concentration −6.0",89%
same,Percent Growth,"OVCAR-5; OVCAR-5, Log10 Concentration −7.0",84%
same,Percent Growth,"OVCAR-5; OVCAR-5, Log10 Concentration −8.0",93%
same,Percent Growth,"CAKI-1; CAKI-1, Log10 Concentration −4.0",−93%
same,Percent Growth,"CAKI-1; CAKI-1, Log10 Concentration −5.0",41%
same,Percent Growth,"CAKI-1; CAKI-1, Log10 Concentration −6.0",87%
same,Percent Growth,"CAKI-1; CAKI-1, Log10 Concentration −7.0",85%
same,Percent Growth,"CAKI-1; CAKI-1, Log10 Concentration −8.0",93%
same,GI50,"CAKI-1; Homo sapiens, CAKI-1",6.37 µM
same,CC50,"CAKI-1; Homo sapiens, CAKI-1, read-out: LC50",47.9 µM
same,IC (TGI),"CAKI-1; Homo sapiens, CAKI-1, read-out: TGI",20.3 µM
same,GI50,"NCI-H522; Homo sapiens, NCI-H522",1.6 µM
same,CC50,"NCI-H522; Homo sapiens, NCI-H522, read-out: LC50",7.82 µM
same,IC (TGI),"NCI-H522; Homo sapiens, NCI-H522, read-out: TGI",3.54 µM
same,Percent Growth,"NCI-H522; NCI-H522, Log10 Concentration −4.0",−78%
same,Percent Growth,"NCI-H522; NCI-H522, Log10 Concentration −5.0",−66%
same,Percent Growth,"NCI-H522; NCI-H522, Log10 Concentration −6.0",80%
same,Percent Growth,"NCI-H522; NCI-H522, Log10 Concentration −7.0",102%
same,Percent Growth,"NCI-H522; NCI-H522, Log10 Concentration −8.0",101%
same,Percent Growth,A549/ATCC; Log10 Concentration −4.0,−66%
same,Percent Growth,A549/ATCC; Log10 Concentration −5.0,83%
same,Percent Growth,A549/ATCC; Log10 Concentration −6.0,104%
same,Percent Growth,A549/ATCC; Log10 Concentration −7.0,93%
same,Percent Growth,A549/ATCC; Log10 Concentration −8.0,92%
same,GI50,"A549/ATCC; Homo sapiens, A549",16.7 µM
same,CC50,"A549/ATCC; Homo sapiens, A549, read-out: LC50",77.8 µM
same,IC (TGI),"A549/ATCC; Homo sapiens, A549, read-out: TGI",36.1 µM
same,GI50,"SK-OV-3; Homo sapiens, SK-OV-3",28 µM
same,CC50,"SK-OV-3; Homo sapiens, SK-OV-3, read-out: LC50",> 100 µM
same,IC (TGI),"SK-OV-3; Homo sapiens, SK-OV-3, read-out: TGI",70.5 µM
same,Percent Growth,"SK-OV-3; SK-OV-3, Log10 Concentration −4.0",−19%
same,Percent Growth,"SK-OV-3; SK-OV-3, Log10 Concentration −5.0",106%
same,Percent Growth,"SK-OV-3; SK-OV-3, Log10 Concentration −6.0",106%
same,Percent Growth,"SK-OV-3; SK-OV-3, Log10 Concentration −7.0",104%
same,Percent Growth,"SK-OV-3; SK-OV-3, Log10 Concentration −8.0",99%
same,GI50,"IGROV1; Homo sapiens, IGROV-1",16.7 µM
same,CC50,"IGROV1; Homo sapiens, IGROV-1, read-out: LC50",95.5 µM
same,IC (TGI),"IGROV1; Homo sapiens, IGROV-1, read-out: TGI",39.9 µM
same,Percent Growth,IGROV1; Log10 Concentration −4.0,−53%
same,Percent Growth,IGROV1; Log10 Concentration −5.0,79%
same,Percent Growth,IGROV1; Log10 Concentration −6.0,107%
same,Percent Growth,IGROV1; Log10 Concentration −7.0,106%
same,Percent Growth,IGROV1; Log10 Concentration −8.0,107%
same,GI50,"OVCAR-8; Homo sapiens, OVCAR-8",12.5 µM
same,CC50,"OVCAR-8; Homo sapiens, OVCAR-8, read-out: LC50",72 µM
same,IC (TGI),"OVCAR-8; Homo sapiens, OVCAR-8, read-out: TGI",30 µM
same,Percent Growth,"OVCAR-8; OVCAR-8, Log10 Concentration −4.0",−69%
same,Percent Growth,"OVCAR-8; OVCAR-8, Log10 Concentration −5.0",63%
same,Percent Growth,"OVCAR-8; OVCAR-8, Log10 Concentration −6.0",105%
same,Percent Growth,"OVCAR-8; OVCAR-8, Log10 Concentration −7.0",95%
same,Percent Growth,"OVCAR-8; OVCAR-8, Log10 Concentration −8.0",95%
same,GI50,"NCI-H23; Homo sapiens, NCI-H23",18.4 µM
same,CC50,"NCI-H23; Homo sapiens, NCI-H23, read-out: LC50",> 100 µM
same,IC (TGI),"NCI-H23; Homo sapiens, NCI-H23, read-out: TGI",45.7 µM
same,Percent Growth,"NCI-H23; NCI-H23, Log10 Concentration −4.0",−43%
same,Percent Growth,"NCI-H23; NCI-H23, Log10 Concentration −5.0",83%
same,Percent Growth,"NCI-H23; NCI-H23, Log10 Concentration −6.0",103%
same,Percent Growth,"NCI-H23; NCI-H23, Log10 Concentration −7.0",103%
same,Percent Growth,"NCI-H23; NCI-H23, Log10 Concentration −8.0",96%
same,GI50,"TK-10; Homo sapiens, TK-10, TK-10",3.83 µM
same,CC50,"TK-10; Homo sapiens, TK-10, read-out: LC50",37.9 to 50 µM
same,IC (TGI),"TK-10; Homo sapiens, TK-10, read-out: TGI",13.5 µM
same,Percent Growth,TK-10; Log10 Concentration −4.0,−99%
same,Percent Growth,TK-10; Log10 Concentration −5.0,15%
same,Percent Growth,TK-10; Log10 Concentration −6.0,99%
same,Percent Growth,TK-10; Log10 Concentration −7.0,103%
same,Percent Growth,TK-10; Log10 Concentration −8.0,102%
same,GI50,"SK-MEL-2; Homo sapiens, SK-MEL-2",11.3 µM
same,CC50,"SK-MEL-2; Homo sapiens, SK-MEL-2, read-out: LC50",64.1 µM
same,IC (TGI),"SK-MEL-2; Homo sapiens, SK-MEL-2, read-out: TGI",26.9 µM
same,Percent Growth,"SK-MEL-2; SK-MEL-2, Log10 Concentration −4.0",−76%
same,Percent Growth,"SK-MEL-2; SK-MEL-2, Log10 Concentration −5.0",57%
same,Percent Growth,"SK-MEL-2; SK-MEL-2, Log10 Concentration −6.0",97%
same,Percent Growth,"SK-MEL-2; SK-MEL-2, Log10 Concentration −7.0",92%
same,Percent Growth,"SK-MEL-2; SK-MEL-2, Log10 Concentration −8.0",90%
same,GI50,CCRF-CEM; Homo sapiens,2.2 µM
same,CC50,"CCRF-CEM; Homo sapiens, read-out: LC50",> 100 µM
same,IC (TGI),"CCRF-CEM; Homo sapiens, read-out: TGI",7.66 µM
same,Percent Growth,CCRF-CEM; Log10 Concentration −4.0,−49%
same,Percent Growth,CCRF-CEM; Log10 Concentration −5.0,−11%
same,Percent Growth,CCRF-CEM; Log10 Concentration −6.0,82%
same,Percent Growth,CCRF-CEM; Log10 Concentration −7.0,100%
same,Percent Growth,CCRF-CEM; Log10 Concentration −8.0,99%
same,GI50,"SW-620; Homo sapiens, SW-620, SW-620",4.35 µM
same,CC50,"SW-620; Homo sapiens, SW-620, read-out: LC50",64.9 µM
same,IC (TGI),"SW-620; Homo sapiens, SW-620, read-out: TGI",17.8 µM
same,Percent Growth,SW-620; Log10 Concentration −4.0,−67%
same,Percent Growth,SW-620; Log10 Concentration −5.0,22%
same,Percent Growth,SW-620; Log10 Concentration −6.0,99%
same,Percent Growth,SW-620; Log10 Concentration −7.0,99%
same,Percent Growth,SW-620; Log10 Concentration −8.0,99%
same,GI50,LOX IMVI; Homo sapiens,4.74 µM
same,CC50,"LOX IMVI; Homo sapiens, read-out: LC50",47 µM
same,IC (TGI),"LOX IMVI; Homo sapiens, read-out: TGI",16.7 µM
same,Percent Growth,LOX IMVI; Log10 Concentration −4.0,−86%
same,Percent Growth,LOX IMVI; Log10 Concentration −5.0,25%
same,Percent Growth,LOX IMVI; Log10 Concentration −6.0,103%
same,Percent Growth,LOX IMVI; Log10 Concentration −7.0,98%
same,Percent Growth,LOX IMVI; Log10 Concentration −8.0,98%
same,GI50,"MDA-MB-231/ATCC; Homo sapiens, MDA-MB-231",6.19 µM
same,CC50,"MDA-MB-231/ATCC; Homo sapiens, MDA-MB-231, read-out: LC50",61.5 µM
same,IC (TGI),"MDA-MB-231/ATCC; Homo sapiens, MDA-MB-231, read-out: TGI",22.2 µM
same,Percent Growth,MDA-MB-231/ATCC; Log10 Concentration −4.0,−74%
same,Percent Growth,MDA-MB-231/ATCC; Log10 Concentration −5.0,39%
same,Percent Growth,MDA-MB-231/ATCC; Log10 Concentration −6.0,91%
same,Percent Growth,MDA-MB-231/ATCC; Log10 Concentration −7.0,96%
same,Percent Growth,MDA-MB-231/ATCC; Log10 Concentration −8.0,97%
